Experiments:
[1] = target: androgen receptor (AR) (Rattus norvegicus (Rat), UniProt P15207); assay: DES versus Compound IV, AR crossreaction (FIG. 12B); type: cell-based
[2] = tested on: telemetered dogs; assay: Hemodynamic and cardiac function in telemetered dogs; type: in vivo; conditions: any dose (up to 300 mg/kg)
[3] = tested on: rats; assay: Gastrointestinal effects in rats; type: in vivo; conditions: oral
[4] = tested on: rats; assay: Single and repeated oral administration toxicity in rats; type: in vivo
Excerpt: Compound IV was well-tolerated by rats and dogs after single and repeated oral administration (up to 28 days).

[5] = tested on: isolated canine Purkinje fibers; assay: Action potential duration in isolated canine Purkinje fibers; conditions: 10 and 100 μM
[6] = target: PPAR-γ (Homo sapiens (Human), UniProt P37231); assay: Cross-reactivity transcriptional activation assay, PPAR-γ; type: cell-based; conditions: agonist and antagonist modes
Chain of PPAR-γ (P37231 whole entry, canonical isoform): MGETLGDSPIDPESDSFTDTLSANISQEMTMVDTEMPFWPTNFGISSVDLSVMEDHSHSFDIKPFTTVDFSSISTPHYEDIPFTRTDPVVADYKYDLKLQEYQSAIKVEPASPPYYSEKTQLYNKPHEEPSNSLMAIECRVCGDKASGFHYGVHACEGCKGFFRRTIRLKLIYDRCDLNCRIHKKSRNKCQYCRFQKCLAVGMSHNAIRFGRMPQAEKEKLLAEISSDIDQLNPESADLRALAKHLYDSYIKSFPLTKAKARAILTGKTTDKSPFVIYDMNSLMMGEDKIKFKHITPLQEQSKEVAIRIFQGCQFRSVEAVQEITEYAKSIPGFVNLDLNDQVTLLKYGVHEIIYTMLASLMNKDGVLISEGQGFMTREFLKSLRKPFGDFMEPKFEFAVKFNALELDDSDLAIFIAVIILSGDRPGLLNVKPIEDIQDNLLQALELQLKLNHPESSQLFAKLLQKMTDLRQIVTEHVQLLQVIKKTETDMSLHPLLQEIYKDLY
Excerpt: (§1) Compound IV was screened for cross-reactivity against rat isoforms of glucocorticoid receptor (GR), mineralocorticoids receptor (MR), progesterone receptor (PR), androgen receptor (AR) and human isoforms of farnesoid X receptor (FXR), liver X receptor (LXR), peroxisome proliferator-activated receptors (PPAR-α and PPAR-γ), and retinoid X receptor (RXR-α) in both agonist and antagonist modes in transcriptional activation assays.

[7] = tested on: serum testosterone and total androgens; assay: Testosterone suppression in Cynomolgus monkeys; type: in vivo; conditions: 30 mg/kg oral daily
[8] = target: glucocorticoid receptor (GR) (Rattus norvegicus (Rat), UniProt P06536); assay: Cross-reactivity transcriptional activation assay, GR; type: cell-based; conditions: agonist and antagonist modes
Chain of glucocorticoid receptor (GR) (P06536 whole entry): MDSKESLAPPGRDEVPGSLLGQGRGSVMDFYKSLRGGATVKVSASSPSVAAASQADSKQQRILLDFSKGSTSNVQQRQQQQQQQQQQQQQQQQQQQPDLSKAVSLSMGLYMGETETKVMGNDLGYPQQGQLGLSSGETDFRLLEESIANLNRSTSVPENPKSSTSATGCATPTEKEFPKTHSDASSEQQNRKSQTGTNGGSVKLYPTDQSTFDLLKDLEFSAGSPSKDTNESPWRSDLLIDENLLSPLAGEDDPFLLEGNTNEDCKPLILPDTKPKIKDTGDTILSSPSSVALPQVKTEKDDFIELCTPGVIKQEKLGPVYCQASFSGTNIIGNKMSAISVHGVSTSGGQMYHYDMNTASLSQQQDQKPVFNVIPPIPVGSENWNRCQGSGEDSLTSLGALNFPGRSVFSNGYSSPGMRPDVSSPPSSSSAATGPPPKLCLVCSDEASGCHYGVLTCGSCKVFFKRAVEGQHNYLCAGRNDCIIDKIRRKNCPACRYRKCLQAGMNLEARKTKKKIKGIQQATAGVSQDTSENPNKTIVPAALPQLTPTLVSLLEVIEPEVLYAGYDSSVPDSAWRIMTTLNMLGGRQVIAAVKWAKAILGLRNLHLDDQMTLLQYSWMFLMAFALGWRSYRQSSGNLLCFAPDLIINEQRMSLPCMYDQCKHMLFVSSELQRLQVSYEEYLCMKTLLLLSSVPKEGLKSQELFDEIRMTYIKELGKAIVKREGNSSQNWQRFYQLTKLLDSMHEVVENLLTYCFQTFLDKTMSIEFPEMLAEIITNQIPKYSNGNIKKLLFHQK
Excerpt: as §1

[9] = target: farnesoid X receptor (FXR) (Homo sapiens (Human), UniProt Q96RI1); assay: Cross-reactivity transcriptional activation assay, FXR; type: cell-based; conditions: agonist and antagonist modes
Chain of farnesoid X receptor (FXR) (Q96RI1 whole entry): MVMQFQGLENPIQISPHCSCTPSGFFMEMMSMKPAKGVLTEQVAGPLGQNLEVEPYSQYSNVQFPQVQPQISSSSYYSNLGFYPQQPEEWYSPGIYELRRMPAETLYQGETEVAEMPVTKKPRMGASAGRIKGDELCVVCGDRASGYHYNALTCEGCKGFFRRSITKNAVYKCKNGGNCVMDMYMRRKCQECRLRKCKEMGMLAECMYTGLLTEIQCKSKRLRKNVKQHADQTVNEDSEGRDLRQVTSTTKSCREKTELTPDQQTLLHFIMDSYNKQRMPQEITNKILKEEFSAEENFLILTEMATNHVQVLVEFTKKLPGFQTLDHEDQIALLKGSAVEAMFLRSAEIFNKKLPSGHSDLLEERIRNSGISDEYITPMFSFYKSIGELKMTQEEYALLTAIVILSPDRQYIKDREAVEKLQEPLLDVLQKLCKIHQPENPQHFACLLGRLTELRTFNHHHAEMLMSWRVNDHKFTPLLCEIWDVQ
Excerpt: as §1

[10] = target: PPAR-α (Homo sapiens (Human), UniProt Q07869); assay: Cross-reactivity transcriptional activation assay, PPAR-α; type: cell-based; conditions: agonist and antagonist modes
Excerpt: as §1

[11] = tested on: estrogen related receptor (ERR-α, ERR-β and ERR-γ); assay: DES versus Compound IV, ERR transactivation (FIG. 12C); type: cell-based
[12] = target: rat ER-β (Rattus norvegicus (Rat), UniProt Q62986); assay: ER-β transactivation assay (ERE-LUC) in HEK-293 cells; type: cell-based
Chain of rat ER-β (Q62986 whole entry): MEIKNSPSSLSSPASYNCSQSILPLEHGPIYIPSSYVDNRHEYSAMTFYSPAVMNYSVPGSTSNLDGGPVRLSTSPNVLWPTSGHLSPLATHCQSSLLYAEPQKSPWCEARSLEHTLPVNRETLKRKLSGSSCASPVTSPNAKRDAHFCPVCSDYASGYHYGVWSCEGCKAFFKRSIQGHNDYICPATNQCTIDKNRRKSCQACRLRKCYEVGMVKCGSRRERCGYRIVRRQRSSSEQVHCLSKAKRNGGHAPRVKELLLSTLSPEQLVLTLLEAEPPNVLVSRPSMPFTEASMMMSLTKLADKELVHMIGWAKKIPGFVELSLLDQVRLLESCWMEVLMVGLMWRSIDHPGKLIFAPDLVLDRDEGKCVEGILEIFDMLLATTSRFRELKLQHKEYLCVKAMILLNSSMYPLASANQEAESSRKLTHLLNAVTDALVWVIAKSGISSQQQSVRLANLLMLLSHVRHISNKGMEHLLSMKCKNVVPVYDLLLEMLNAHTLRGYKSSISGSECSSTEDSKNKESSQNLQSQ
Procedure: (§2) Transactivation assays in agonist and antagonist modes were performed to identify whether the compound is an agonist, antagonist or a partial.
(§3) Sequencing was performed to determine the absence of any mutations. HEK-293 cells were plated at 100,000 cells per well of a 24 well plate in Dulbecco's Minimal Essential Media (DMEM) +5% charcoal-stripped fetal bovine serum (csFBS). […] Luciferase assays were performed 48 hrs after transfection.

[13] = target: progesterone receptor (PR) (Rattus norvegicus (Rat), UniProt Q63449); assay: Cross-reactivity transcriptional activation assay, PR; type: cell-based; conditions: agonist and antagonist modes
Chain of progesterone receptor (PR) (Q63449 whole entry): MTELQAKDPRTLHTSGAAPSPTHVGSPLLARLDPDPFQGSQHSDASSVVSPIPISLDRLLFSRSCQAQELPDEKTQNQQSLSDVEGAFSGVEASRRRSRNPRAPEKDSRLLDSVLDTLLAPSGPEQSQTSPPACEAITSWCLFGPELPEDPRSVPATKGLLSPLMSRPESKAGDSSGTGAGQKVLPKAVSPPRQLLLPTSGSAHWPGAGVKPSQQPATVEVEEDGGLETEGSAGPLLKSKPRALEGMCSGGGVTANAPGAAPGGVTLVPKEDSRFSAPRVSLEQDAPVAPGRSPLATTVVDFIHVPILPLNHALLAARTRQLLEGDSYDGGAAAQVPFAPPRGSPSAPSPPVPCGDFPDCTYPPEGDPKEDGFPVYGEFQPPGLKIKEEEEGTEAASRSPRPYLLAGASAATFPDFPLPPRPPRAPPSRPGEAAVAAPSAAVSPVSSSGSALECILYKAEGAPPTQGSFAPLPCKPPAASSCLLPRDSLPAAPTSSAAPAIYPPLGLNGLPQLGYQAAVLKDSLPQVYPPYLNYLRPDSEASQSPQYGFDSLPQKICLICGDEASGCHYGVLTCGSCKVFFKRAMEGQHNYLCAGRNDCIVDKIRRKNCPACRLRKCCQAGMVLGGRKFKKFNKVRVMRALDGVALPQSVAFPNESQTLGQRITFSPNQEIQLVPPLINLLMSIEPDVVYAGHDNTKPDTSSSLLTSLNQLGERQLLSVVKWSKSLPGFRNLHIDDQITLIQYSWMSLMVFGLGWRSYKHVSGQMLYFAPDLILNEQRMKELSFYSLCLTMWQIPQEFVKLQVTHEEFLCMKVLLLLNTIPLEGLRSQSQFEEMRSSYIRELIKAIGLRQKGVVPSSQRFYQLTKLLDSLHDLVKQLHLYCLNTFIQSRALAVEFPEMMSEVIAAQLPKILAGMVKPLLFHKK
Excerpt: as §1

[14] = Mutagenicity
[15] = Renal function after single oral dose; type: in vivo
[16] = Oral bioavailability in rats; type: in vivo
Procedure: Formulations using polyethylene glycol 300 (PEG300) generally produced higher exposures than microemulsions prepared in Tween 80 diluted in deionized water. […] Importantly, in dogs the exposure in the male 30 mg/kg PEG300 oral dose group exceeded the exposure necessary to produce the maximal effect on prostate reduction in the rat model of LH suppression.

[17] = target: ER-α ligand binding domain (LBD) (Homo sapiens (Human), UniProt P03372); assay: ER-α competitive radioligand binding assay with [3H]E2; conditions: read-out: ER-α Ki
Procedure: Following incubation, plates were harvested with GF/B filters on the Unifilter-96 Harvester (PerkinElmer) and washed three times with ice-cold buffer B (50 mM Tris, pH 7.2). The filter plates were dried at room temperature, then 35 μl Microscint-O cocktail was added to each well and the filter plates were sealed with TopSeal-A. Radioactivity was counted in a TopCount® NXT Microplate Scintillation Counter using the settings for ^3H in Microscint cocktail (PerkinElmer).
E2 (determined by incubating with 10^−6 M unlabeled E2) and expressing it as a percentage of the specific binding in the absence of test compound.

[18] = target: rat ER-α (Rattus norvegicus (Rat), UniProt P06211); assay: cell-based
Chain of rat ER-α (P06211 whole entry): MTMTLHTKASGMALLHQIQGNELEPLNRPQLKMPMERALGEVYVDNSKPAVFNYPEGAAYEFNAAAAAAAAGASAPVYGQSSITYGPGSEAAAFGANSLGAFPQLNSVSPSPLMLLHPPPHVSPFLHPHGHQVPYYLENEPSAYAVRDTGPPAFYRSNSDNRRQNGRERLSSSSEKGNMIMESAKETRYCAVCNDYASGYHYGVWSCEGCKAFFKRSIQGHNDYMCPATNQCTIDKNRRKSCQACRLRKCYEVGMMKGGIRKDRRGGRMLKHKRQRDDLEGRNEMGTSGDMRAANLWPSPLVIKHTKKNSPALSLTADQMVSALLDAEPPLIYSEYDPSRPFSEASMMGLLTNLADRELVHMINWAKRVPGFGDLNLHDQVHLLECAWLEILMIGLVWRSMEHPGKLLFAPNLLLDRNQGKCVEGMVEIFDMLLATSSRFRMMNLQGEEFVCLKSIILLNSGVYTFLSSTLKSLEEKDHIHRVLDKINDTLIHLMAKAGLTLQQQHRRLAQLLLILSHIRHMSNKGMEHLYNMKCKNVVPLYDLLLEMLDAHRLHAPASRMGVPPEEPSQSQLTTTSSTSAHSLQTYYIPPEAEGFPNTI
Procedure: as §2
as §3, with “(csFBS). The cells were transfected using Lipofectamine (Invitrogen, Carlsbad, Calif.) with 0.25 μg ERE-LUC, 0.02 μg CMV-LUC (renilla luciferase) and 12.5 ng of rat ER-α or 25 ng rat ER-β.” for “(csFBS).”

[19] = tested on: liver X receptor (LXR); assay: Cross-reactivity transcriptional activation assay, LXR; type: cell-based, human; conditions: agonist and antagonist modes
Excerpt: as §1

[20] = estradiol 1 nM, concentrations up to 10 μM

Chain of androgen receptor (AR) (P15207 whole entry S389L): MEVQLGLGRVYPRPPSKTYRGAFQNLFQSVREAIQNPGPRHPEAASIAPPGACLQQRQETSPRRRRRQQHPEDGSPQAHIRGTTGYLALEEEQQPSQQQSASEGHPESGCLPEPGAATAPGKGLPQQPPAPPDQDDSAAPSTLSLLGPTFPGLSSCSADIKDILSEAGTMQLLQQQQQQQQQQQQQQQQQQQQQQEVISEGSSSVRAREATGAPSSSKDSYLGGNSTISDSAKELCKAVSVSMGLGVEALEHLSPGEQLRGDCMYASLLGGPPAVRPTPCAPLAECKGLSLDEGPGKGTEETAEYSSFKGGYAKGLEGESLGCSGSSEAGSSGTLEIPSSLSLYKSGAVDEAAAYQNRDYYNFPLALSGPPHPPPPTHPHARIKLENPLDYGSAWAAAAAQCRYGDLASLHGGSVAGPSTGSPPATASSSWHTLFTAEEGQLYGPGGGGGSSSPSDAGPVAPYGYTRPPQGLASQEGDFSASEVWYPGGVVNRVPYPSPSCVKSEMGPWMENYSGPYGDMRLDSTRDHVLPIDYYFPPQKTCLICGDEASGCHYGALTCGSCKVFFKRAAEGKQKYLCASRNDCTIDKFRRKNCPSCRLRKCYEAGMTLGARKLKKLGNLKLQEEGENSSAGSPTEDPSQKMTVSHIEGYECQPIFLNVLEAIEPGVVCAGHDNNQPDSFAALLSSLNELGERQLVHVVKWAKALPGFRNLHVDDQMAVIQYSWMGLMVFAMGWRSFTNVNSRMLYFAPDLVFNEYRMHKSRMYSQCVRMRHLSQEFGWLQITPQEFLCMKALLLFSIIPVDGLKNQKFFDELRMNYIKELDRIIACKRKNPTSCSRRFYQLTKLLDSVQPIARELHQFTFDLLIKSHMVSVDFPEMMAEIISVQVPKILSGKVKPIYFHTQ

O=C(c1ccc(O)c(F)c1)N(c1ccc(O)cc1)c1ccc(F)cc1 [Compound IV, 3-fluoro-N-(4-fluorophenyl)-4-hydroxy-N-(4-hydroxyphenyl)benzamide]
crossreaction with AR [1]: did not | hemodynamic or cardiac function (blood pressure, heart rate, electrocardiogram morphology or QT intervals) [2]: did not affect | gastrointestinal motility and gastric acidity ([3]; 30 mg/kg): significant increase | peristalsis ([3]; 30 to 300 mg/kg): significant increase | tolerability ([4]; single and repeated oral administration (up to 28 days)): well-tolerated | pathologic changes in kidney, liver, heart and other non-target-related organs ([4]; up to 28 days oral): no pathologic changes observed | APD50 [5]: decreased | APD90 [5]: decreased | agonist or antagonist activity [6]: did not display any agonist or antagonist activity | Testosterone Percent reduction from baseline ([7]; Animal 1, Day 2): 16% | Testosterone Serum level ([7]; Animal 1, Day 2): 937 pg/mL | Total Androgens Percent reduction from baseline ([7]; Animal 1, Day 2): 37% | Total Androgens Serum level ([7]; Animal 1, Day 2): 1178 pg/mL | Testosterone Percent reduction from baseline ([7]; Animal 1, Day 3): 30% | Testosterone Serum level ([7]; Animal 1, Day 3): 784 pg/mL | Total Androgens Percent reduction from baseline ([7]; Animal 1, Day 3): 42% | Total Androgens Serum level ([7]; Animal 1, Day 3): 1078 pg/mL | Testosterone Percent reduction from baseline ([7]; Animal 1, Day 4): 51% | Testosterone Serum level ([7]; Animal 1, Day 4): 552 pg/mL | Total Androgens Percent reduction from baseline ([7]; Animal 1, Day 4): 47% | Total Androgens Serum level ([7]; Animal 1, Day 4): 988 pg/mL | Testosterone Percent reduction from baseline ([7]; Animal 1, Day 5): 64% | Testosterone Serum level ([7]; Animal 1, Day 5): 403 pg/mL | Total Androgens Percent reduction from baseline ([7]; Animal 1, Day 5): 48% | Total Androgens Serum level ([7]; Animal 1, Day 5): 966 pg/mL | Testosterone Percent reduction from baseline ([7]; Animal 1, Day 6): 58% | Testosterone Serum level ([7]; Animal 1, Day 6): 474 pg/mL | Total Androgens Percent reduction from baseline ([7]; Animal 1, Day 6): 56% | Total Androgens Serum level ([7]; Animal 1, Day 6): 819 pg/mL | Testosterone Percent reduction from baseline ([7]; Animal 3, Day 2): 22% | Testosterone Serum level ([7]; Animal 3, Day 2): 479 pg/mL | Total Androgens Percent reduction from baseline ([7]; Animal 3, Day 2): 48% | Total Androgens Serum level ([7]; Animal 3, Day 2): 847 pg/mL | Testosterone Percent reduction from baseline ([7]; Animal 3, Day 3): 29% | Testosterone Serum level ([7]; Animal 3, Day 3): 437 pg/mL | Total Androgens Percent reduction from baseline ([7]; Animal 3, Day 3): 52% | Total Androgens Serum level ([7]; Animal 3, Day 3): 786 pg/mL | Testosterone Percent reduction from baseline ([7]; Animal 3, Day 4): 33% | Testosterone Serum level ([7]; Animal 3, Day 4): 415 pg/mL | Total Androgens Percent reduction from baseline ([7]; Animal 3, Day 4): 44% | Total Androgens Serum level ([7]; Animal 3, Day 4): 924 pg/mL | Testosterone Percent reduction from baseline ([7]; Animal 3, Day 5): 55% | Testosterone Serum level ([7]; Animal 3, Day 5): 276 pg/mL | Total Androgens Percent reduction from baseline ([7]; Animal 3, Day 5): 60% | Total Androgens Serum level ([7]; Animal 3, Day 5): 664 pg/mL | Testosterone Percent reduction from baseline ([7]; Animal 3, Day 6): 64% | Testosterone Serum level ([7]; Animal 3, Day 6): 221 pg/mL | Total Androgens Percent reduction from baseline ([7]; Animal 3, Day 6): 56% | Total Androgens Serum level ([7]; Animal 3, Day 6): 726 pg/mL | agonist or antagonist activity [8]: did not display any agonist or antagonist activity | agonist or antagonist activity [9]: did not display any agonist or antagonist activity | agonist or antagonist activity [10]: did not display any agonist or antagonist activity | effect on ERR transactivation [11]: failed to crossreact | ERβ activity in transient transfection assays [12]: agonist | antagonist effects on estradiol-stimulated transcriptional activation [12, 20]: no antagonist effects were observed | agonist or antagonist activity [13]: did not display any agonist or antagonist activity | mutagenicity [14]: not mutagenic | effects on renal function ([15]; highest dose tested (100 mg/kg)): increased urine volume output and urinary excretion of potassium and chloride | effects on renal function ([15]; single oral dose of up to 30 mg/kg): No significant effects | absorption following oral dosing [16]: rapidly absorbed | bioavailability ([16]; rat, in vivo, po, depending on the formulation): 6 to 25% | Ki [17]: 21.7 ± 1.7 nM | ERα activity in transient transfection assays [18]: agonist | selectivity for ERα over ERβ in transcriptional activation [18]: 49.0 fold | antagonist effects on estradiol-stimulated transcriptional activation [18, 20]: no antagonist effects were observed | relative selectivity in transactivation potency for ERα over ERβ ([18]; normalized to estradiol values): 9.7 fold | agonist or antagonist activity [19]: did not display any agonist or antagonist activity

From patent publication US8546451B2 (priority 2005, dated 2013)
